Common to all, as to assay type: physicochemical
Data set [1] is described as follows: DLS particle size and PDI of hydrocortisone derivatives milled with Pluronic F127 (Examples 8, 9). Conditions: for PDI of milled suspension / Size (Z-averaged) of milled suspension: 5% compound, 5% F127 in PBS pH 7.1, milled 25 hours; for Milled suspension PDI / Milled suspension Size (Z-average): final form B. As to the method: (§1) A milling procedure was employed in which aqueous dispersions containing coarse compound particles were individually milled with F127 at near-neutral pH buffer using a grinding medium. Briefly, a slurry containing 5% of compound and 5% F127 in PBS (0.0067 M PO4^3−), pH 7.1 was added to an equal bulk volume of 1-mm ceria-stabilized zirconium oxide beads in a glass vial (e.g., 2 mL of slurry per 2 mL of beads). A magnetic stir bar was used to agitate the beads, stirring at approximately 500 rpm at ambient conditions for 25 hours.
The milled suspensions were subjected to dynamic light scattering (DLS) measurements to determine particle size and polydispersity index (PDI, a measure of the width of the particle size distribution). The samples for DLS measurements were buffered with HyClone™ PBS (Phosphate-Buffered Saline) to produce isotonic samples that have a physiologically relevant pH.
Form 3-B was wet-milled using the same method that generated the data in Tables 13 and 14.

A short description of data set [2]: HPLC chemical purity of milled suspensions (stability to milling). As to the method: as §1
The HPLC method used to determine the purity of milled suspensions is as follows: column—SunFire™ C18, 3.5 μm, 3.0×150 mm, column temperature—40° C., flow rate—0.7 mL/min, detection wavelength—254 nm, flow gradient—50:50 (0 minutes) to 0:100 (10 minutes) 0.1% phosphoric acid/H2O:acetonitrile.

Data set [3] can be described thus: XRPD crystal form before and after milling. Particulars: milled with F127. The source says: Particles were isolated by centrifugation, then resuspended in H2O and then recentrifuged. The wet sample was resuspended in H2O and deposited thinly and evenly onto a flat zero background sample holder (Rigaku 906165). The sample was allowed to air dry.
Milligram amounts were packed as an evenly thin layer of solid onto a zero background sample holder (Rigaku 906165).
XRPD patterns were obtained using a Rigaku MiniFlex 600 benchtop x-ray diffractometer equipped with a Cu X-ray tube (Cu/Kα=1.54059 Å), a six-position sample changer and a D/teX Ultra detector. […] Diffraction patterns were viewed and analyzed using PDXL analysis software provided by the instrument manufacturer. A reference standard silicon powder (NIST Standard Reference Material 640d) generated a peak at 28.43° and 28.45° two theta when samples were prepared as suspension in H2O (to simulate Procedure A) and Procedure B, respectively.
Except for Crystalline Form 1-B, the XRPD samples of all other forms were prepared using Procedure A (milled compounds) or Procedure B (neat compounds). […] was used to prepare the XRPD sample of Crystalline Form 1-B.
All input crystalline forms were arbitrarily designated as “A” forms. New forms that emerged after milling, if any, were sequentially designated as “B”, “C”, etc. An “A” form was not designated for Compound 2 since the input material was amorphous.

The nature of data set [4]: DLS particle size and PDI of drugs milled with F127 or SDS (Example 6). The source says:
The technique described in Example 1 was applied to other non-polymeric solid particles to show the versatility of the approach. […] Table 12 lists the particle sizes for a representative selection of drugs that were milled using this method.

The mark [5] stands for this setting: drug milled with stabilizer F127.
The mark [6] stands for this setting: drug milled with stabilizer SDS.

In the case of `C[C@]12CCC(=O)C=C1CC[C@@H]1[C@@H]2[C@@H](O)C[C@@]2(C)[C@H]1CC[C@]2(OC(=O)CCS(=O)(=O)c1ccccc1)C(=O)CO` [Compound 1, (10R,11S,13S,17R)-11-hydroxy-17-(2-hydroxyacetyl)-10,13-dimethyl-3-oxo-2,3,6,7,8,9,10,11,12,13,14,15,16,17-tetradecahydro-1H-cyclopenta[a]phenanthren-17-yl 3-(phenylsulfonyl)propanoate], in data set [1], the “PDI of milled suspension” value is on record as 0.318 and the “Size (Z-averaged) of milled suspension” value is 509 nm. In data set [2] (after milling with F127), this compound had a Purity after milling of less than 90%. For the same compound, the Purity after milling in data set [2] (after milling with F127, listed as 7) is less than 90%. For the same compound, the “Crystal form change after milling of Input forms?” value (shortened to “Crystal form change after milling”) in data set [3] is reported as “Yes”.

Turning to `C[C@]12CCC(=O)C=C1CC[C@@H]1[C@@H]2[C@@H](O)C[C@@]2(C)[C@H]1CC[C@]2(OC(=O)c1ccco1)C(=O)CO` [Compound 2, (10R,11S,13S,17R)-11-hydroxy-17-(2-hydroxyacetyl)-10,13-dimethyl-3-oxo-2,3,6,7,8,9,10,11,12,13,14,15,16,17-tetradecahydro-1H-cyclopenta[a]phenanthren-17-yl furan-2-carboxylate], the “Size (Z-averaged) of milled suspension” value in data set [1] is 238 nm. In data set [2] (after milling with F127), the Purity after milling is reported as greater than 96%. In addition, the “Crystal form change after milling” value in data set [3] was “No”.

Take `C[C@]12CCC(=O)C=C1CC[C@@H]1[C@@H]2[C@@H](O)C[C@@]2(C)[C@H]1CC[C@]2(OC(=O)Cc1ccc(Br)cc1)C(=O)CO` [Compound 3, (10R,11S,13S,17R)-11-hydroxy-17-(2-hydroxyacetyl)-10,13-dimethyl-3-oxo-2,3,6,7,8,9,10,11,12,13,14,15,16,17-tetradecahydro-1H-cyclopenta[a]phenanthren-17-yl 2-(4-bromophenyl)acetate]: in data set [1], the “PDI of milled suspension” value is on record as 0.197 and the “Size (Z-averaged) of milled suspension” value is on record as 341 nm. In data set [1] (input form A), the “Milled suspension PDI” value came to 0.197 and the “Milled suspension Size (Z-average)” value is recorded as 341 nm. Besides, in data set [1] (input form B), the “Milled suspension PDI” value is listed as 0.154 and the “Milled suspension Size (Z-average)” value turned out to be 262 nm. In addition, the Purity after milling in data set [2] (after milling with F127) is given as greater than 96%. Further, the “Crystal form change after milling” value in data set [3] was “Yes”.

For the compound `CCC(=O)O[C@]1(C(=O)SCF)[C@H](C)C[C@H]2[C@@H]3C[C@H](F)C4=CC(=O)C=C[C@]4(C)[C@@]3(F)[C@@H](O)C[C@@]21C` [Fluticasone propionate], in data set [4] (setting [5]), the PDI came out at 0.114 and the “Z-Ave D” value was 203 nm. Moreover, in data set [4] (setting [6]), the PDI worked out at 0.193 and the “Z-Ave D” value is recorded as 202 nm.

As to `NS(=O)(=O)c1cc(C(=O)O)c(NCc2ccco2)cc1Cl` [Furosemide], in data set [4] (setting [5]), the PDI amounted to 0.119 and the “Z-Ave D” value worked out at 217 nm. Further, in data set [4] (setting [6]), the PDI is given as 0.146 and the “Z-Ave D” value is 200 nm.

As for `COc1ccc2c(c1)c(CC(=O)O)c(C)n2C(=O)c1ccc(Cl)cc1` [Indomethacin], in data set [4] (setting [5]), the PDI turned out to be 0.123 and the “Z-Ave D” value was 225 nm. In data set [4] (setting [6]), the PDI is 0.154 and the “Z-Ave D” value is 216 nm.

Turning to `CCOC(=O)O[C@]1(C(=O)OCCl)CC[C@H]2[C@@H]3CCC4=CC(=O)C=C[C@]4(C)[C@H]3[C@@H](O)C[C@@]21C` [Loteprednol etabonate], in data set [4] (setting [5]), the PDI was 0.123 and the “Z-Ave D” value is listed as 241 nm. For the same compound, in data set [4] (setting [6]), the PDI turned out to be 0.130 and the “Z-Ave D” value is listed as 241 nm.

In the case of `C[C@]12C=CC(=O)C=C1CC[C@@H]1[C@@H]2[C@@H](O)C[C@@]2(C)[C@H]1CC[C@]2(O)C(=O)CO` [Prednisolone], the values for the PDI in data set [4] (setting [5]) and in data set [4] (setting [6]) were 0.090 and 0.120, respectively. In addition, the “Z-Ave D” value in data set [4] (setting [5]) is recorded as 273 nm; in data set [4] (setting [6]) it was 245 nm.

Values taken from patent US20190216726A1, “Particles, Compositions and Methods for Ophthalmic and/or Other Applications” (priority 2016, published 2019).
